Assay results published in ChEMBL document CHEMBL2069208, “Isolactarane and sterpurane sesquiterpenoids from the basidiomycete Phlebia uda” (J Nat Prod, 2012).
Active and inactive are the calls of the source. No cut-off for these calls is given here.

Columns and labels:
HepG2 = experiment: Growth inhibition of human HepG2 cells up to 50 ug/ml; assay type: functional, cell-based
Phytophthora infestans = experiment: Inhibition of spore germination of Phytophthora infestans assessed as compound concentration causing 75 to 100% germination inhibition; assay type: functional
Jurkat [1] = experiment: Growth inhibition of human Jurkat cells; assay type: functional, cell-based
Fusarium graminearum = experiment: Inhibition of spore germination of Fusarium graminearum assessed as compound concentration causing 75 to 100% germination inhibition; assay type: functional
Pyricularia grisea = experiment: Inhibition of spore germination of Magnaporthe grisea assessed as compound concentration causing 75 to 100% germination inhibition; assay type: functional
Botrytis cinerea = experiment: Inhibition of spore germination of Botrytis cinerea assessed as compound concentration causing 75 to 100% germination inhibition; assay type: functional
Jurkat [2] = experiment: Growth inhibition of human Jurkat cells up to 50 ug/mL; assay type: functional, cell-based

Row | Structure (SMILES) | growth inhibition (GI) (HepG2) | INH (Phytophthora infestans) [µg/mL] | IC50 (Jurkat [1]) [µM] | INH (Fusarium graminearum) [µg/mL] | INH (Pyricularia grisea) [µg/mL] | INH (Botrytis cinerea) [µg/mL] | growth inhibition (GI) (Jurkat [2])
1 | CCC(C)CCOC1OC(=O)[C@]23C[C@@H]4CC(C)(C)CC4=C(C=O)[C@]12C3 (mixture of isomers) [UDALACTARANE A] | inactive | 100 | 101 | 10 | 10 | >100 | 
2 | CC1(C)CC2=C(C=O)[C@@]34C[C@]3(C[C@@H]2C1)C(=O)OC4O (stereo not given in full) |  | 25 |  | 10 | 10 | 50 | 
3 | CC1=C2C[C@@](C)(COC3OC(=O)[C@]45C[C@@H]6CC(C)(C)CC6=C(C=O)[C@]34C5)C[C@H]2C[C@]2(C)CC[C@]12O (mixture of isomers) [UDALACTARANE B] | inactive | 10 | 42 | 5 |  | >100 | 
4 | CC1=C2C[C@@](C)(CO)C[C@H]2C[C@]2(C)CC[C@]12O | inactive |  |  |  |  |  | inactive
5 | Cc1cc(C2CCCCC2)n(O)c(=O)c1 [CICLOPIROX] |  |  |  |  |  | 50 | 
6 | CC1=C2C[C@@](C)(C(=O)O)C[C@H]2C[C@]2(C)CC[C@]12O | inactive |  | 160 |  |  |  | 
